Measurements reported in US20150218222A1, “Medicaments” (ARMO BioSciences, Inc., priority 2005, published 2015).
Entries after “also recorded” stand apart in the source; their conditions may differ. Where no end group is shown, it is not given here.

Columns and labels:
Assay type in all cases: in vivo
rat incisional wounds [1] = assay: Microscopic Wound Index (wound width, cellularity, inflammation, epithelial covering) of day three rat incisional wounds; conditions: for wound index score / wound width score (Wound Index parameter): day three, combined scores of 3 observers; for wound index score: FIG. 5; for wound width score (Wound Index parameter): FIG. 6
Protocol: (§1) The effects of the peptide on wound healing and scar formation were assessed with reference to the following parameters: • i) The macroscopic quality of the wounds. This was assessed using a rat macroscopic wound assessment protocol as follows. Macroscopic appearance was scored using a Visual Analogue Scale (VAS) consisting of a 10 cm line representing a scale from 0 (denoted by a mark at 0 cm) indicating a “good” wound to 10 (denoted by a mark at 10 cm) indicating a “poor” wound. In assessing the quality of the wound a mark representative of the score conferred was made on the 10 cm line based on the gape and quality of healing of the wound. The best-healed wounds were scored towards the good wound end of the scale (the left hand side of the VAS line) and the poorly healed ones were scored towards the poor wound end of the scale (the right hand side of the VAS line). The marks awarded were measured from the left hand side to provide the final value for the wound assessment in centimetres (to 1 decimal place). • ii) The microscopic width of wounds. The microscopic width of wounds was measured using image analysis of histological sections of wounds. Wounds were analysed using a Leica DM RXA Microscope and a Leica QWin Image Analyser. Linear wound width was measured with a straight line from the left wound margin (where the epidermis begins to thicken) to the right wound margin (where the epidermis begins to thicken). • iii) The re-epithelialisation of wounds. The extent of re-epithelialisation of wounds was measured using image analysis of histological sections of wounds. The percentage re-epithelialisation was calculated by first measuring the non-epithelialised wound diameter. The non-epithelialised wound length was measured with a straight line from the left hand non-epithelialised wound edge to the right hand non-epithelialised wound edge. The non-epithelialised wound edges were identified as the current position of the epithelium in the wound during healing. The re-epithelialisation width was then calculated by subtracting the non re-epithelialised width from the wound width. The percentage re-epithelialisation was then calculated accordingly. • iv) The microscopic quality of the wounds. This was assessed using microscopic Wound Index sheets analysed in accordance with the protocol described below. Evaluation of the microscopic quality of the wounds included an assessment of inflammatory response present in the wounds, as well as assessment of the cellularity of the wounds.
Wound index assesses the quality of the wound and gives an assessment based upon the following parameters: wound width (scored out of 10; 1 being a very narrow wound and 10 being a very wide wound); total cellularity of the wound (scored out of 5; 1 being a wound containing a low number of cells and 5 being a wound with a high number of cells); inflammatory cell number (scored out of 5; 1 being a low number of inflammatory cells and 5 being a high number of inflammatory cells); and epithelial covering (scored 0 for complete coverage and 1 for incomplete coverage). The final wound index score is derived by adding the scores for each parameter. A higher wound index value indicates a wound of low quality, whilst a lower wound index value represents a wound of relatively higher quality. • v) The macroscopic quality of scars. This was assessed using a rat macroscopic scar assessment protocol as follows. Macroscopic appearance was scored using a Visual Analogue Scale (VAS) consisting of a 10 cm line representing a scale from 0 corresponding to normal skin to 10 corresponding to a bad scar. A mark was made on the 10 cm line based on an overall assessment of the scar taking into account parameters such as the height, width, contour and colour of the scar. […]

rat incisional wounds [2] = assay: Percentage re-epithelialisation by image analysis of day three rat incisional wounds; conditions: FIG. 4
Protocol: The effects of the peptide on wound healing and scar formation were assessed with reference to the following parameters: • i) The macroscopic quality of the wounds. This was assessed using a rat macroscopic wound assessment protocol as follows. Macroscopic appearance was scored using a Visual Analogue Scale (VAS) consisting of a 10 cm line representing a scale from 0 (denoted by a mark at 0 cm) indicating a “good” wound to 10 (denoted by a mark at 10 cm) indicating a “poor” wound. In assessing the quality of the wound a mark representative of the score conferred was made on the 10 cm line based on the gape and quality of healing of the wound. The best-healed wounds were scored towards the good wound end of the scale (the left hand side of the VAS line) and the poorly healed ones were scored towards the poor wound end of the scale (the right hand side of the VAS line). The marks awarded were measured from the left hand side to provide the final value for the wound assessment in centimetres (to 1 decimal place). • ii) The microscopic width of wounds. The microscopic width of wounds was measured using image analysis of histological sections of wounds. Wounds were analysed using a Leica DM RXA Microscope and a Leica QWin Image Analyser. Linear wound width was measured with a straight line from the left wound margin (where the epidermis begins to thicken) to the right wound margin (where the epidermis begins to thicken). • iii) The re-epithelialisation of wounds. The extent of re-epithelialisation of wounds was measured using image analysis of histological sections of wounds. The percentage re-epithelialisation was calculated by first measuring the non-epithelialised wound diameter. The non-epithelialised wound length was measured with a straight line from the left hand non-epithelialised wound edge to the right hand non-epithelialised wound edge. […] The re-epithelialisation width was then calculated by subtracting the non re-epithelialised width from the wound width. The percentage re-epithelialisation was then calculated accordingly. • iv) The microscopic quality of the wounds. […]

rat incisional wounds [3] = assay: Macroscopic scar quality (VAS) of day seventy scars from rat incisional wounds; conditions: FIG. 9
Excerpt: Wound index assesses the quality of the wound and gives an assessment based upon the following parameters: wound width (scored out of 10; 1 being a very narrow wound and 10 being a very wide wound); total cellularity of the wound (scored out of 5; 1 being a wound containing a low number of cells and 5 being a wound with a high number of cells); inflammatory cell number (scored out of 5; 1 being a low number of inflammatory cells and 5 being a high number of inflammatory cells); and epithelial covering (scored 0 for complete coverage and 1 for incomplete coverage). The final wound index score is derived by adding the scores for each parameter. A higher wound index value indicates a wound of low quality, whilst a lower wound index value represents a wound of relatively higher quality. • v) The macroscopic quality of scars. This was assessed using a rat macroscopic scar assessment protocol as follows. Macroscopic appearance was scored using a Visual Analogue Scale (VAS) consisting of a 10 cm line representing a scale from 0 corresponding to normal skin to 10 corresponding to a bad scar. A mark was made on the 10 cm line based on an overall assessment of the scar taking into account parameters such as the height, width, contour and colour of the scar. The best scars (typically small width and colour, height and contour like normal skin) were scored towards the normal skin end of the scale (the left hand side of the VAS line) and bad scars (typically large width, raised with uneven contours and whiter colour) were scored towards the bad scar end of the scale (the right hand side of the VAS line). The marks were measured from the left hand side to provide the final value for the scar assessment in centimetres (to 1 decimal place).
(§2) Rat incisional wounds formed in accordance with well-accepted experimental models (previously described in Shah et al. 1994) were treated with peptide Ala-Tyr-Met-Thr-Met-Lys-Ile-Arg-Asn (Sequence ID No. 2) at concentrations of 50, 125, 250 […] ng/100 μl. Treated and control wounds were harvested at three days post-wounding, and scars derived from treated and control wounds harvested at seventy days post-wounding.
(§3) Four wounds were made on each experimental animal (rat), of which two were treated with the trial concentrations of the peptide. The peptide was administered by intradermal injection on the day of wounding and at one day following wounding.
Scars for analysis were harvested from experimental animals killed on the seventieth day post-wounding.
Macroscopic quality of scars was assessed using macroscopic scar assessment sheets scored by two observers in accordance with the protocols described above.
Statistical analysis was carried out using a one-factor analysis of variance (ANOVA) followed by the Mann-Whitney U (MWU) test. […]

rat incisional wounds [4] = assay: Macroscopic wound quality (VAS) of day three rat incisional wounds; conditions: day 0 and 1, p<0.05 vs naïve wounds, FIG. 1
Protocol: The effects of the peptide on wound healing and scar formation were assessed with reference to the following parameters: • i) The macroscopic quality of the wounds. This was assessed using a rat macroscopic wound assessment protocol as follows. Macroscopic appearance was scored using a Visual Analogue Scale (VAS) consisting of a 10 cm line representing a scale from 0 (denoted by a mark at 0 cm) indicating a “good” wound to 10 (denoted by a mark at 10 cm) indicating a “poor” wound. In assessing the quality of the wound a mark representative of the score conferred was made on the 10 cm line based on the gape and quality of healing of the wound. The best-healed wounds were scored towards the good wound end of the scale (the left hand side of the VAS line) and the poorly healed ones were scored towards the poor wound end of the scale (the right hand side of the VAS line). The marks awarded were measured from the left hand side to provide the final value for the wound assessment in centimetres (to 1 decimal place). • ii) The microscopic width of wounds. The microscopic width of wounds was measured using image analysis of histological sections of wounds. Wounds were analysed using a Leica DM RXA Microscope and a Leica QWin Image Analyser. […] The extent of re-epithelialisation of wounds was measured using image analysis of histological sections of wounds. […]

rat incisional wounds [5] = assay: Microscopic wound width by image analysis of day three rat incisional wounds; conditions: for wound width at the mid-points of incisional wounds: FIG. 3; for wound width at the top of incisional wounds: FIG. 2
Protocol: as §1, §2, §3
The experimental animals for wound analysis were killed on the third day post-wounding, and wounds harvested for histology.
Wound widths and percentage re-epithelialisation of incisions were measured by Image Analysis in accordance with the protocols described above. […]

[6] = 125 ng/100 μl, p<0.01 vs naïve wounds

Sequence: AYMTMKIRN [peptide of Sequence ID No. 2, peptide based on the C-terminal portion of interleukin 10 (IL-10)]
- wound index score (rat incisional wounds [1]; 50 ng/100 μl): lower wound index scores than did control wounds
- wound width score (Wound Index parameter) (rat incisional wounds [1]; 50 ng/100 μl): lower wound width scores than controls
- wound index score (rat incisional wounds [1]; 125 ng/100 μl): lower wound index scores than did control wounds
- wound width score (Wound Index parameter) (rat incisional wounds [1]; 125 ng/100 μl): lower wound width scores than controls
- wound index score (rat incisional wounds [1]; 250 ng/100 μl): lower wound index scores than did control wounds; also recorded: lowest wound index scores
- wound width score (Wound Index parameter) (rat incisional wounds [1]; 250 ng/100 μl): lower wound width scores than controls
- cellularity of treated wounds (rat incisional wounds [1]; day three incisional wounds, combined observers, FIG. 7): did not reduce cellularity of treated wounds
- inflammatory response in treated wounds (rat incisional wounds [1]; day three incisional wounds, combined observers, FIG. 8): did not reduce cellularity of treated wounds, or cause a reduction of the inflammatory response
- percentage of the tops of incisional wounds covered by re-epithelialisation (rat incisional wounds [2]; 50 ng/100 μl): appeared to exhibit an increase in the extent of re-epithelialisation
- percentage of the tops of incisional wounds covered by re-epithelialisation (rat incisional wounds [2]; 125 ng/100 μl): appeared to exhibit an increase in the extent of re-epithelialisation
- percentage of the tops of incisional wounds covered by re-epithelialisation (rat incisional wounds [2]; 250 ng/100 μl, p<0.01 vs naïve, p<0.05 vs diluent alone): significant increase in the extent of re-epithelialisation
- macroscopic visual analogue (VAS) score, scar quality (rat incisional wounds [3]; 50 ng/100 μl, p<0.05 vs naïve control wounds): significantly improved scarring
- macroscopic visual analogue (VAS) score, scar quality (rat incisional wounds [3]; 125 ng/100 μl, p<0.05 vs naïve control wounds): significantly improved scarring
- macroscopic visual analogue (VAS) score, scar quality (rat incisional wounds [3]; 250 ng/100 μl, p<0.01 vs naïve and diluent control wounds, 2 observers): significant improvement in macroscopic quality
- macroscopic visual analogue (VAS) score, scar quality (rat incisional wounds [3]; 500 ng/100 μl, p<0.05 vs naïve control wounds): significantly improved scarring
- macroscopic visual analogue (VAS) score, wound quality (rat incisional wounds [4]; 125 ng/100 μl intradermal): significant improvement in the macroscopic quality
- macroscopic visual analogue (VAS) score, wound quality (rat incisional wounds [4]; 250 ng/100 μl intradermal): significant improvement in the macroscopic quality
- wound width at the mid-points of incisional wounds (rat incisional wounds [5]; 50 ng/100 μl, p<0.05 vs naïve wounds): significant decrease in wound width
- wound width at the top of incisional wounds (rat incisional wounds [5]; [6]): significant decrease in wound width
- wound width at the mid-points of incisional wounds (rat incisional wounds [5]; [6]): significant decrease in wound width
- wound width at the top of incisional wounds (rat incisional wounds [5]; 250 ng/100 μl, p<0.01 vs naïve wounds): significant decrease in wound width
- wound width at the mid-points of incisional wounds (rat incisional wounds [5]; 250 ng/100 μl, p<0.01 vs naïve, p<0.05 vs diluent control wounds): significant decrease in wound width
